Source: the supplement of paper PMC4862054

Key:
Details in all cases: incubation time: 72 h
[1] = system: CAL-120; assay: drug sensitivity score (DSS), CellTiter-Blue viability (DSS (AUC-based score)); higher = stronger viability inhibition; extreme values may be limits of the assay
Experimental: (§1)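 DSRT with the CellTiter-Blue (resazurin reduction) viability readout, fluorescence 560/590 nm, 72 h incubation. Plates were normalised to DMSO and benzethonium chloride controls. DSS is computed from the area under the fitted dose-response curve (5 or 9 concentrations).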

[2] = system: HCC1937; assay: as above
Experimental: as §1

[3] = system: BT-474; assay: drug sensitivity score (DSS), CellTiter-Glo (DSS (AUC-based score)); higher = stronger drug effect (viability inhibition or cytotoxicity); extreme values may be limits of the assay
Procedure, shortened: (§2)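 Breast cancer cell lines were seeded in 20 µl suspension into 384-well plates already holding compound and incubated for 72 h. Each compound was tested at 5 concentrations in 10-fold steps across its own 10,000-fold range. Plates were normalised to 0.1 % DMSO and a positive kill control after CellTox Green and then CellTiter-Glo readings. The area under the fitted dose-response curve served as the basis for the drug sensitivity score.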

[4] = system: BT-549; assay: as above
Procedure, shortened: as §2

[5] = system: CAL-120; assay: as above
Procedure, shortened: as §2

[6] = system: CAL-148; assay: as above
Procedure, shortened: as §2

[7] = system: CAL-51; assay: as above
Procedure, shortened: as §2

[8] = system: CAL-85-1; assay: as above
Procedure, shortened: as §2

[9] = system: DU-4475; assay: as above
Procedure, shortened: as §2

[10] = system: HCC1143; assay: as above
Procedure, shortened: as §2

[11] = system: HCC1599; assay: as above
Procedure, shortened: as §2

[12] = system: HCC1937; assay: as above
Procedure, shortened: as §2

[13] = system: HDQ-P1; assay: as above
Procedure, shortened: as §2

[14] = system: Hs578T; assay: as above
Procedure, shortened: as §2

[15] = system: MCF-10A; assay: as above
Procedure, shortened: as §2

[16] = system: MDA-MB-231; assay: as above
Procedure, shortened: as §2

[17] = system: MDA-MB-436; assay: as above
Procedure, shortened: as §2

[18] = system: MDA-MB-453; assay: as above
Procedure, shortened: as §2

[19] = system: MDA-MB-468; assay: as above
Procedure, shortened: as §2

[20] = system: MFM-223; assay: as above
Procedure, shortened: as §2

[21] = system: SK-BR-3; assay: as above
Procedure, shortened: as §2

## Cc1c(CN2CCN(C(=O)[C@H](C)O)CC2)sc2c(N3CCOCC3)nc(-c3cnc(N)nc3)nc12 [GDC-0980]
[1]
  drug sensitivity score: 17.5
[2]
  drug sensitivity score: 14.1
[3]
  drug sensitivity score: 8.66
[4]
  drug sensitivity score: 13.1
[5]
  drug sensitivity score: 10.9
[6]
  drug sensitivity score: 12.4
[7]
  drug sensitivity score: 14.7
[8]
  drug sensitivity score: 11.8
[9]
  drug sensitivity score: 6.71
[10]
  drug sensitivity score: 11.4
[11]
  drug sensitivity score: 2.28
[12]
  drug sensitivity score: 6.52
[13]
  drug sensitivity score: 14.1
[14]
  drug sensitivity score: 12.6
[15]
  drug sensitivity score: 12.6
[16]
  drug sensitivity score: 9.56
[17]
  drug sensitivity score: 8.47
[18]
  drug sensitivity score: 17.5
[19]
  drug sensitivity score: 10.1
[20]
  drug sensitivity score: 12.7
[21]
  drug sensitivity score: 18.5

## Nc1cccc2c1CN(C1CCC(=O)NC1=O)C2=O (stereo not drawn) [Lenalidomide]
[1]
  drug sensitivity score: 0
[2]
  drug sensitivity score: 0
[3]
  drug sensitivity score: 0
[4]
  drug sensitivity score: 0
[5]
  drug sensitivity score: 2.82e-05
[6]
  drug sensitivity score: 0
[7]
  drug sensitivity score: 0
[8]
  drug sensitivity score: 0
[9]
  drug sensitivity score: 0
[10]
  drug sensitivity score: 0
[11]
  drug sensitivity score: 0
[12]
  drug sensitivity score: 0
[13]
  drug sensitivity score: 0
[14]
  drug sensitivity score: 0
[15]
  drug sensitivity score: 0
[16]
  drug sensitivity score: 0
[17]
  drug sensitivity score: 0
[18]
  drug sensitivity score: 0
[19]
  drug sensitivity score: 0
[20]
  drug sensitivity score: 0
[21]
  drug sensitivity score: 0

## C[C@]12O[C@H](C[C@]1(O)CO)n1c3ccccc3c3c4c(c5c6ccccc6n2c5c31)CNC4=O [Lestaurtinib]
[1]
  drug sensitivity score: 7.43
[2]
  drug sensitivity score: 7.15
[3]
  drug sensitivity score: 3.87
[4]
  drug sensitivity score: 7.26
[5]
  drug sensitivity score: 7.69
[6]
  drug sensitivity score: 0
[7]
  drug sensitivity score: 0.729
[8]
  drug sensitivity score: 4.38
[9]
  drug sensitivity score: 8.11
[10]
  drug sensitivity score: 2.04
[11]
  drug sensitivity score: 7.24
[12]
  drug sensitivity score: 2.31
[13]
  drug sensitivity score: 2.59
[14]
  drug sensitivity score: 3.6
[15]
  drug sensitivity score: 8.64
[16]
  drug sensitivity score: 2.14
[17]
  drug sensitivity score: 3.31
[18]
  drug sensitivity score: 5.26
[19]
  drug sensitivity score: 11.8
[20]
  drug sensitivity score: 4.3
[21]
  drug sensitivity score: 8.99

## O=C1c2c(O)ccc(O)c2C(=O)c2c(NCCNCCO)ccc(NCCNCCO)c21 [Mitoxantrone]
[1]
  drug sensitivity score: 9.16
[2]
  drug sensitivity score: 23.1
[3]
  drug sensitivity score: 0
[4]
  drug sensitivity score: 0
[5]
  drug sensitivity score: 0
[6]
  drug sensitivity score: 3.82
[7]
  drug sensitivity score: 2.13
[8]
  drug sensitivity score: 0
[9]
  drug sensitivity score: 2.92
[10]
  drug sensitivity score: 0.675
[11]
  drug sensitivity score: 0
[12]
  drug sensitivity score: 0
[13]
  drug sensitivity score: 0.578
[14]
  drug sensitivity score: 0
[15]
  drug sensitivity score: 0
[16]
  drug sensitivity score: 0
[17]
  drug sensitivity score: 5.91
[18]
  drug sensitivity score: 0
[19]
  drug sensitivity score: 0
[20]
  drug sensitivity score: 0
[21]
  drug sensitivity score: 0

## Nc1ccccc1NC(=O)c1ccc(CNc2nccc(-c3cccnc3)n2)cc1 [Mocetinostat]
[1]
  drug sensitivity score: 13.4
[2]
  drug sensitivity score: 7.41
[3]
  drug sensitivity score: 6.06
[4]
  drug sensitivity score: 8.43
[5]
  drug sensitivity score: 6.33
[6]
  drug sensitivity score: 7.02
[7]
  drug sensitivity score: 8.93
[8]
  drug sensitivity score: 6.32
[9]
  drug sensitivity score: 9
[10]
  drug sensitivity score: 5.67
[11]
  drug sensitivity score: 5.88
[12]
  drug sensitivity score: 6.31
[13]
  drug sensitivity score: 4.52
[14]
  drug sensitivity score: 5.95
[15]
  drug sensitivity score: 1.13
[16]
  drug sensitivity score: 6.07
[17]
  drug sensitivity score: 5.31
[18]
  drug sensitivity score: 9.7
[19]
  drug sensitivity score: 8.18
[20]
  drug sensitivity score: 5.07
[21]
  drug sensitivity score: 8.95

## COc1nc(N)nc2c1ncn2[C@@H]1O[C@H](CO)[C@@H](O)[C@@H]1O [Nelarabine]
[1]
  drug sensitivity score: 0
[2]
  drug sensitivity score: 0
[3]
  drug sensitivity score: 1.66
[4]
  drug sensitivity score: 0
[5]
  drug sensitivity score: 0
[6]
  drug sensitivity score: 0
[7]
  drug sensitivity score: 0
[8]
  drug sensitivity score: 0
[9]
  drug sensitivity score: 0
[10]
  drug sensitivity score: 0
[11]
  drug sensitivity score: 0
[12]
  drug sensitivity score: 0
[13]
  drug sensitivity score: 0
[14]
  drug sensitivity score: 0
[15]
  drug sensitivity score: 0
[16]
  drug sensitivity score: 0
[17]
  drug sensitivity score: 0.149
[18]
  drug sensitivity score: 0
[19]
  drug sensitivity score: 0
[20]
  drug sensitivity score: 0
[21]
  drug sensitivity score: 0

## Cc1ccc(Nc2nccc(N(C)c3ccc4c(C)n(C)nc4c3)n2)cc1S(N)(=O)=O [Pazopanib]
[1]
  drug sensitivity score: 0
[2]
  drug sensitivity score: 0
[3]
  drug sensitivity score: 0
[4]
  drug sensitivity score: 2.29
[5]
  drug sensitivity score: 0.234
[6]
  drug sensitivity score: 0
[7]
  drug sensitivity score: 0
[8]
  drug sensitivity score: 0
[9]
  drug sensitivity score: 0
[10]
  drug sensitivity score: 0
[11]
  drug sensitivity score: 0
[12]
  drug sensitivity score: 0
[13]
  drug sensitivity score: 0
[14]
  drug sensitivity score: 0.162
[15]
  drug sensitivity score: 0
[16]
  drug sensitivity score: 0
[17]
  drug sensitivity score: 0
[18]
  drug sensitivity score: 0
[19]
  drug sensitivity score: 0
[20]
  drug sensitivity score: 6.2
[21]
  drug sensitivity score: 0

## O=C(CCBr)N1CCN(C(=O)CCBr)CC1 [Pipobroman]
[1]
  drug sensitivity score: 0
[2]
  drug sensitivity score: 0
[3]
  drug sensitivity score: 0
[4]
  drug sensitivity score: 0
[5]
  drug sensitivity score: 0
[6]
  drug sensitivity score: 0
[7]
  drug sensitivity score: 1.64
[8]
  drug sensitivity score: 0
[9]
  drug sensitivity score: 0
[10]
  drug sensitivity score: 0
[11]
  drug sensitivity score: 0
[12]
  drug sensitivity score: 0
[13]
  drug sensitivity score: 0
[14]
  drug sensitivity score: 0
[15]
  drug sensitivity score: 0
[16]
  drug sensitivity score: 0
[17]
  drug sensitivity score: 0
[18]
  drug sensitivity score: 0
[19]
  drug sensitivity score: 0
[20]
  drug sensitivity score: 0
[21]
  drug sensitivity score: 0

## c1cc(CN2CCCNCCNCCCNCC2)ccc1CN1CCCNCCNCCCNCC1 [Plerixafor]
[1]
  drug sensitivity score: 0
[2]
  drug sensitivity score: 0
[3]
  drug sensitivity score: 0
[4]
  drug sensitivity score: 0
[5]
  drug sensitivity score: 0
[6]
  drug sensitivity score: 0
[7]
  drug sensitivity score: 0
[8]
  drug sensitivity score: 0
[9]
  drug sensitivity score: 0
[10]
  drug sensitivity score: 0
[11]
  drug sensitivity score: 0
[12]
  drug sensitivity score: 0
[13]
  drug sensitivity score: 0
[14]
  drug sensitivity score: 0
[15]
  drug sensitivity score: 0
[16]
  drug sensitivity score: 0
[17]
  drug sensitivity score: 0
[18]
  drug sensitivity score: 0
[19]
  drug sensitivity score: 0
[20]
  drug sensitivity score: 0
[21]
  drug sensitivity score: 0

## C[C@]12C=CC(=O)C=C1CC[C@@H]1[C@@H]2[C@@H](O)C[C@@]2(C)[C@H]1CC[C@]2(O)C(=O)CO [Prednisolone]
[1]
  drug sensitivity score: 0
[2]
  drug sensitivity score: 0
[3]
  drug sensitivity score: 0
[4]
  drug sensitivity score: 0
[5]
  drug sensitivity score: 5.1
[6]
  drug sensitivity score: 0
[7]
  drug sensitivity score: 0
[8]
  drug sensitivity score: 0
[9]
  drug sensitivity score: 0
[10]
  drug sensitivity score: 0
[11]
  drug sensitivity score: 0
[12]
  drug sensitivity score: 0
[13]
  drug sensitivity score: 2.08
[14]
  drug sensitivity score: 0
[15]
  drug sensitivity score: 0
[16]
  drug sensitivity score: 0
[17]
  drug sensitivity score: 0
[18]
  drug sensitivity score: 0
[19]
  drug sensitivity score: 0
[20]
  drug sensitivity score: 0
[21]
  drug sensitivity score: 0

## CNC(=O)c1cc(Oc2ccc(NC(=O)Nc3ccc(Cl)c(C(F)(F)F)c3)cc2)ccn1 [Sorafenib]
[1]
  drug sensitivity score: 0
[2]
  drug sensitivity score: 0
[3]
  drug sensitivity score: 0
[4]
  drug sensitivity score: 0
[5]
  drug sensitivity score: 0
[6]
  drug sensitivity score: 0
[7]
  drug sensitivity score: 0
[8]
  drug sensitivity score: 0
[9]
  drug sensitivity score: 0
[10]
  drug sensitivity score: 0
[11]
  drug sensitivity score: 0
[12]
  drug sensitivity score: 0
[13]
  drug sensitivity score: 0
[14]
  drug sensitivity score: 0
[15]
  drug sensitivity score: 0
[16]
  drug sensitivity score: 0
[17]
  drug sensitivity score: 0
[18]
  drug sensitivity score: 0
[19]
  drug sensitivity score: 0
[20]
  drug sensitivity score: 0
[21]
  drug sensitivity score: 0

## CCN(CC)CCNC(=O)c1c(C)[nH]c(/C=C2\C(=O)Nc3ccc(F)cc32)c1C [Sunitinib]
[1]
  drug sensitivity score: 0
[2]
  drug sensitivity score: 0
[3]
  drug sensitivity score: 0
[4]
  drug sensitivity score: 0
[5]
  drug sensitivity score: 0
[6]
  drug sensitivity score: 0
[7]
  drug sensitivity score: 0
[8]
  drug sensitivity score: 0
[9]
  drug sensitivity score: 0
[10]
  drug sensitivity score: 0
[11]
  drug sensitivity score: 0
[12]
  drug sensitivity score: 0
[13]
  drug sensitivity score: 0
[14]
  drug sensitivity score: 0
[15]
  drug sensitivity score: 0
[16]
  drug sensitivity score: 0
[17]
  drug sensitivity score: 0
[18]
  drug sensitivity score: 0
[19]
  drug sensitivity score: 0
[20]
  drug sensitivity score: 0
[21]
  drug sensitivity score: 0

## CC[C@@]1(O)C(=O)OCc2c1cc1n(c2=O)Cc2cc3c(CN(C)C)c(O)ccc3nc2-1 [Topotecan]
[1]
  drug sensitivity score: 8.72
[2]
  drug sensitivity score: 13.2
[3]
  drug sensitivity score: 3.82
[4]
  drug sensitivity score: 10.8
[5]
  drug sensitivity score: 5.11
[6]
  drug sensitivity score: 18.7
[7]
  drug sensitivity score: 11
[8]
  drug sensitivity score: 11.1
[9]
  drug sensitivity score: 14.6
[10]
  drug sensitivity score: 9.67
[11]
  drug sensitivity score: 18.3
[12]
  drug sensitivity score: 6.32
[13]
  drug sensitivity score: 0
[14]
  drug sensitivity score: 1.55
[15]
  drug sensitivity score: 4.97
[16]
  drug sensitivity score: 4.13
[17]
  drug sensitivity score: 13.6
[18]
  drug sensitivity score: 5.74
[19]
  drug sensitivity score: 20.8
[20]
  drug sensitivity score: 0
[21]
  drug sensitivity score: 14.1
